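Where inhibition never reached the appropriate level, the endpoint shown equals the highest concentration tested. Otherwise, values were interpolated linearly from a five-concentration, 48-hour dose response in 96-well plates. GI50 = concentration required for 50% inhibition of growth. TGI marks complete inhibition of growth.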

The first assay has as its system RXF-631 renal. The assay can be described thus: growth of human tumour cells (NCI), 48 h.
`COc1cc(C)c2c(c1C)OC(=O)c1c(C)c(Cl)c(O)c(C=O)c1O2` came in with a TGI of 57.1 µM.

`COC(=O)/C(C=O)=C/Sc1ccccc1`: the TGI is 45.7 µM.

Compound `C=C1C[C@]23CCC4C(C)(C)C(=O)CC[C@]4(C)C2C[C@H]1C(O)C3=O` (some centres undefined) had a TGI of over 75 µM.

Turning to `CC1(C)O/C(=C\c2ccccc2)C(=O)/C(=C/c2ccccc2)O1`, the TGI is over 100 µM.

In the case of `O=c1[nH]c2cc(Cl)ccc2nc1/C(=N\O)C(O)c1ccc(Cl)cc1Cl` (centres undefined), the TGI is over 100 µM.

Consider `CC(C)CCCC(C)[C@H]1CCC2[C@H]3C(CC[C@@]21C)[C@@]1(C)CCC=C[C@]12C[C@@H]2[C@@H]3O` (some centres undefined), for which the TGI was over 100 µM.

Compound `O=C(Nc1cc(Cl)ccc1Cl)C(=O)C(c1cnc2ccccc2n1)[N+](=O)[O-]` (centres undefined) came in with a TGI of over 100 µM.

As for `CN[C@@H](C)[C@H](NC)c1ccccc1`, the TGI was over 100 µM.

For `CCOC(=N)CC(=O)Nc1cccc(C)c1C`, the TGI was over 100 µM.

The test system of another assay is DLD-1 colon. Nature of the assay: growth of human tumour cells (NCI), 48 h.
In turn, `COc1cc2ccc3c4cc(OC)c(OC(C)C)cc4cnc3c2cc1OC` had a TGI of over 100 µM.

In turn, `COc1cccc(-n2c3nc(=O)n(C)c(=O)c-3nc3ccccc32)c1` showed a TGI of 96.1 µM.

As to `Cc1cc(C)c(C2[C@H]3C(=O)N(c4ccc(Cc5ccc(N6C(=O)[C@@H]7ON(c8ccccc8)C(c8c(C)cc(C)cc8C)[C@@H]7C6=O)cc5)cc4)C(=O)[C@H]3ON2c2ccccc2)c(C)c1` (some centres undefined), the TGI was over 100 µM.

Compound `CC12CCCCC1(C)C2Sc1ccccc1` (centres undefined) had a TGI of over 100 µM.

The compound `CCCCOC(=O)NC(=O)c1cn(CCCOC(=O)NCCCCCCNC(=O)OCCCn2cc(C(=O)NC(=O)OCCCC)c(=O)[nH]c2=O)c(=O)[nH]c1=O` yielded a TGI of over 100 µM.

`COc1cc(C)c2c(c1C)OC(=O)c1c(C)c(Cl)c(O)c(C=O)c1O2` came in with a TGI of 59 µM.

For `COC(=O)/C(C=O)=C/Sc1ccccc1`, the TGI came out at 66 µM.

The compound `C=C1C[C@]23CCC4C(C)(C)C(=O)CC[C@]4(C)C2C[C@H]1C(O)C3=O` (some centres undefined) displayed a TGI of over 75 µM.

The compound `CC1(C)O/C(=C\c2ccccc2)C(=O)/C(=C/c2ccccc2)O1` gave a TGI of over 100 µM.

Regarding `O=c1[nH]c2cc(Cl)ccc2nc1/C(=N\O)C(O)c1ccc(Cl)cc1Cl` (centres undefined), the TGI is over 100 µM.

Regarding `[Au+].[Au+].[Au+].[c-]1nccn1Cc1ccccc1.[c-]1nccn1Cc1ccccc1.[c-]1nccn1Cc1ccccc1`, the GI50 is 1.96 µM and the TGI is 3.7 µM.

Turning to `CC(C)CCCC(C)[C@H]1CCC2[C@H]3C(CC[C@@]21C)[C@@]1(C)CCC=C[C@]12C[C@@H]2[C@@H]3O` (some centres undefined), the TGI was over 100 µM.

Turning to `O=C(Nc1cc(Cl)ccc1Cl)C(=O)C(c1cnc2ccccc2n1)[N+](=O)[O-]` (centres undefined), the TGI is over 100 µM.

For the compound `CN[C@@H](C)[C@H](NC)c1ccccc1`, the TGI is over 100 µM.

In the case of `O=S1OC2(c3ccccc3-c3ccccc32)c2ccccc21` (centres undefined), the TGI was over 100 µM.

`CCOC(=N)CC(=O)Nc1cccc(C)c1C` displayed a TGI of over 100 µM.

The test system of the next assay is KM20L2 colon. The assay can be described thus: growth of human tumour cells (NCI), 48 h.
With `COc1cc2ccc3c4cc(OC)c(OC(C)C)cc4cnc3c2cc1OC`, the TGI was over 100 µM.

`COc1cccc(-n2c3nc(=O)n(C)c(=O)c-3nc3ccccc32)c1` yielded a TGI of 62.6 µM.

In turn, `Cc1cc(C)c(C2[C@H]3C(=O)N(c4ccc(Cc5ccc(N6C(=O)[C@@H]7ON(c8ccccc8)C(c8c(C)cc(C)cc8C)[C@@H]7C6=O)cc5)cc4)C(=O)[C@H]3ON2c2ccccc2)c(C)c1` (some centres undefined) registered a TGI of over 100 µM.

The compound `CC12CCCCC1(C)C2Sc1ccccc1` (centres undefined) gave a TGI of over 100 µM.

For the compound `CCCCOC(=O)NC(=O)c1cn(CCCOC(=O)NCCCCCCNC(=O)OCCCn2cc(C(=O)NC(=O)OCCCC)c(=O)[nH]c2=O)c(=O)[nH]c1=O`, the TGI was over 100 µM.

Consider `COc1cc(C)c2c(c1C)OC(=O)c1c(C)c(Cl)c(O)c(C=O)c1O2`, for which the TGI was found to be 69.5 µM.

As to `COC(=O)/C(C=O)=C/Sc1ccccc1`, the TGI was 94.7 µM.

In turn, `C=C1C[C@]23CCC4C(C)(C)C(=O)CC[C@]4(C)C2C[C@H]1C(O)C3=O` (some centres undefined) came in with a TGI of over 75 µM.

`O=c1[nH]c2cc(Cl)ccc2nc1/C(=N\O)C(O)c1ccc(Cl)cc1Cl` (centres undefined): the TGI is over 100 µM.

`[Au+].[Au+].[Au+].[c-]1nccn1Cc1ccccc1.[c-]1nccn1Cc1ccccc1.[c-]1nccn1Cc1ccccc1`: the GI50 was 26.9 µM and the TGI was over 73 µM.

As for `CC(C)CCCC(C)[C@H]1CCC2[C@H]3C(CC[C@@]21C)[C@@]1(C)CCC=C[C@]12C[C@@H]2[C@@H]3O` (some centres undefined), the TGI is over 100 µM.

In the case of `O=C(Nc1cc(Cl)ccc1Cl)C(=O)C(c1cnc2ccccc2n1)[N+](=O)[O-]` (centres undefined), the TGI was over 100 µM.

Take `O=S1OC2(c3ccccc3-c3ccccc32)c2ccccc21` (centres undefined): the TGI is over 100 µM.

As to `CCOC(=N)CC(=O)Nc1cccc(C)c1C`, the TGI is over 100 µM.

A further assay relates to XF 498 CNS. Nature of the assay: growth of human tumour cells (NCI), 48 h.
Consider `COc1cccc(-n2c3nc(=O)n(C)c(=O)c-3nc3ccccc32)c1`, for which the TGI is 42.7 µM.

In turn, `CC12CCCCC1(C)C2Sc1ccccc1` (centres undefined) returned a TGI of 66.3 µM.

As to `CCCCOC(=O)NC(=O)c1cn(CCCOC(=O)NCCCCCCNC(=O)OCCCn2cc(C(=O)NC(=O)OCCCC)c(=O)[nH]c2=O)c(=O)[nH]c1=O`, the TGI turned out to be 93.1 µM.

Turning to `COc1cc(C)c2c(c1C)OC(=O)c1c(C)c(Cl)c(O)c(C=O)c1O2`, the TGI turned out to be 49.5 µM.

In the case of `COC(=O)/C(C=O)=C/Sc1ccccc1`, the TGI is over 100 µM.

In turn, `C=C1C[C@]23CCC4C(C)(C)C(=O)CC[C@]4(C)C2C[C@H]1C(O)C3=O` (some centres undefined) gave a TGI of over 75 µM.

In turn, `CC1(C)O/C(=C\c2ccccc2)C(=O)/C(=C/c2ccccc2)O1` returned a TGI of 54.4 µM.

On to `O=c1[nH]c2cc(Cl)ccc2nc1/C(=N\O)C(O)c1ccc(Cl)cc1Cl` (centres undefined), for which the TGI is over 100 µM.

In the case of `[Au+].[Au+].[Au+].[c-]1nccn1Cc1ccccc1.[c-]1nccn1Cc1ccccc1.[c-]1nccn1Cc1ccccc1`, the GI50 was 1.74 µM and the TGI was found to be 3.13 µM.

Compound `O=C(Nc1cc(Cl)ccc1Cl)C(=O)C(c1cnc2ccccc2n1)[N+](=O)[O-]` (centres undefined) yielded a TGI of over 100 µM.

For the compound `O=S1OC2(c3ccccc3-c3ccccc32)c2ccccc21` (centres undefined), the TGI is over 100 µM.

The compound `CCOC(=N)CC(=O)Nc1cccc(C)c1C` registered a TGI of over 100 µM.

(Values after PubChem BioAssay (NCI).)
